# Measurements: US12594349B2, “Compositions and methods for the targeting of PCSK9” (Scribe Therapeutics Inc., priority 2022, dated 2026)
# Tests used:
# HBEGF = type: cell-based, human; details: HEK293T, dCasX491 fusion, scaffold 174 spacer 34.28, 2 ng/mL diphtheria toxin for 48 hours
# human PCSK9 locus = assay: Secreted PCSK9 by ELISA in Huh7 cells transfected with mRNA and gRNA; type: cell-based; details: Huh7 cells; for Secreted PCSK9: 6 days post-transfection, normalized to total cell count; for Percent reduction in PCSK9 secretion / Average percent reduction in PCSK9 secretion: LTRP5-ADD-ZIM3 mRNA; for Percent reduction in PCSK9 secretion: day 6, relative to non-targeting gRNA control; for Average percent reduction in PCSK9 secretion: day 6, averaged from the two doses
# Description: To assess PCSK9 secretion, seeded Huh7 cells were transfected with mRNA encoding a catalytically-active CasX 676, dXR1, or LTRP5-ADD-ZIM3 and a gRNA with scaffold 316 and spacer targeting either the B2M or PCSK9 locus. Media supernatant was harvested at 6, 18, 36, and 87 days post-transfection to assess level of PCSK9 secretion by ELISA. Levels of PCSK9 secretion were normalized to total cell count. As an additional control, PCSK9 secretion was also measured in the media supernatant harvested from wells containing untreated, naïve cells.
# The following three human hepatocyte cancer cell lines were used in this experiment: HepG2 cells, Hep3B cells, and Huh7 cells. ˜15,000 cells of each cell line were seeded per well; the next day, seeded cells were transfected with mRNA encoding a catalytically-active CasX 676, dXR1, or LTRP5-ADD-ZIM3 and a gRNA with scaffold 316 and spacer targeting either the B2M or PCSK9 locus (see Table 23 for specific spacers and sequences). Media supernatant was harvested at 4 days post-transfection to assess level of PCSK9 secretion by ELISA, and levels of PCSK9 secretion were normalized to total cell count and illustrated in FIGS. 11A-11C. Culturing of treated Huh7 cells continued, and media supernatant was harvested at 14 and 27 days post-transfection for measuring PCSK9 secretion by ELISA. As an additional experimental control, PCSK9 secretion was also measured in the media supernatant harvested from wells containing untreated, naïve cells.
# To assess PCSK9 secretion, seeded Huh7 cells were co-transfected with mRNA encoding for LTRP5-ADD-ZIM3 and a gRNA with scaffold 316 and spacer targeting the PCSK9 locus using Lipofectamine™ 3000. Two doses of total RNA input at a 2:1 mass ratio of mRNA to gRNA were used for screening: 50 ng mRNA:25 ng gRNA and 25 ng mRNA:12.5 ng gRNA. Media supernatant was harvested at 6 days post-transfection to assess level of PCSK9 secretion by ELISA (Table 74). Levels of PCSK9 secretion were normalized to total cell count. As an additional control, PCSK9 secretion was also measured in the media supernatant harvested from cells transfected with mRNA encoding for mScarlet.
# [1] = LTRP5-ADD-ZIM3 mRNA + gRNA scaffold 316, 25 ng mRNA:12.5 ng gRNA
# [2] = LTRP5-ADD-ZIM3 mRNA + gRNA scaffold 316, 50 ng mRNA:25 ng gRNA
Substance,log 2(fold change) of abundance before and after selection (HBEGF),Secreted PCSK9 (human PCSK9 locus; [1]) [ng/mL],Secreted PCSK9 (human PCSK9 locus; [2]) [ng/mL],Percent reduction in PCSK9 secretion (human PCSK9 locus; 25 ng mRNA:12.5 ng gRNA) [%],Percent reduction in PCSK9 secretion (human PCSK9 locus; 50 ng mRNA:25 ng gRNA) [%],Average percent reduction in PCSK9 secretion (human PCSK9 locus) [%]
"standard ZNF10: human ZNF10 KRAB domain, SEQ ID NO: 129 [reference compound]",1.3637,,,,,
"ZIM3: human ZIM3 KRAB domain, SEQ ID NO: 128 [reference compound]",1.7787,,,,,
"TG-06-129 (guide UUUUACACACCAUGUUCAAG; listed as RNA, chemistry not given here)",,90.82,59.93,27.47,27.16,0.16
Non-targeting (guide CGAGACGTAATTACGTCTCG; chemistry not given here),,,,0,0,0
"TG-06-142 (guide UUCCACUGGCCUUAACCUGG; listed as RNA, chemistry not given here)",,27.27,30.87,61.73,62.48,62.1
"TG-06-123 (guide UCCCAGUAUCGACAGCCCUU; listed as RNA, chemistry not given here)",,51.32,30.49,27.97,62.95,45.46
"TG-06-144 (guide GUGGGCAGCGAGGAGUCCAC; listed as RNA, chemistry not given here)",,29,23.42,59.29,71.53,65.41
"TG-06-150 (guide UCCCUCUGCGCGUAAUCUGA; listed as RNA, chemistry not given here)",,39.59,18.33,44.42,77.73,61.08
